In US4476120A, “Thiolic derivatives of erythromycin having therapeutic activity, and pharmaceutical compositions containing them” (Sigma Tau Indistrie Farmaceutiche Riunites, p.A, priority 1982, dated 1984):
Converted amounts (≈) assume the structure as drawn. Read-outs that look alike come from different tables or passages of the source.

Columns and labels:
S. lutea ATCC 9341 = format: cell-based; conditions: Brain Heart Infusion, estolate and RV11-RV15 previously hydrolized, unit assumed
Br. abortus SS 7 = format: cell-based; conditions: Brain Heart Infusion, estolate and RV11-RV15 previously hydrolized, unit assumed
[1] = Histological examination of bronchi after SO2 inhalation; format: in vivo, Sprague Dawley male rats; conditions: for histological appearance of non obstructed bronchi: free non obstructed
B. subtilis SS 127 = format: cell-based; conditions: Brain Heart Infusion, estolate and RV11-RV15 previously hydrolized, unit assumed
[2] = Hematic levels in the rat (absorption by oral route); conditions: for absorption by oral route (in words): from in vivo antibacterial and pharmacodynamic tests
E. coli SS 05 = format: cell-based; conditions: Brain Heart Infusion, estolate and RV11-RV15 previously hydrolized, unit assumed
[3] = Hematic levels in the healthy volunteer; format: in vivo, healthy volunteers; conditions: oral, 500 mg of erythromycin, average
From the text: For the dosing, the microbiological method using a B. subtilis strain was adopted.

[4] = in vivo; for Hematic levels in the rat: po, 100 mg/kg; for absorption by oral route (in words): rat
[5] = 0.30 hours, 100 mg/kg as erythromycin, average, 100 mg/kg, 18 min
[6] = 1 hour, 100 mg/kg as erythromycin, average, 100 mg/kg, 60 min
[7] = 4 hours, 100 mg/kg as erythromycin, average, 100 mg/kg, 240 min
[8] = 5 hours, 100 mg/kg as erythromycin, average, 100 mg/kg, 300 min
[9] = 6 hours, 100 mg/kg as erythromycin, average, 100 mg/kg, 360 min
[10] = 2 hours, 100 mg/kg as erythromycin, average, 100 mg/kg, 120 min
[11] = 3 hours, 100 mg/kg as erythromycin, average, 100 mg/kg, 180 min

| Compound | MIC (S. lutea ATCC 9341) [µg/mL] | MIC (Br. abortus SS 7) [µg/mL] | histological appearance of non obstructed bronchi ([1]; i.m., 250 mg/kg) | histological appearance of obstructed bronchial tract ([1]; i.m., 250 mg/kg) | MIC (B. subtilis SS 127) [µg/mL] | Hematic levels in the rat [2, 5] [µg/mL] | Hematic levels in the rat [2, 6] [µg/mL] | Hematic levels in the rat [2, 7] [µg/mL] | Hematic levels in the rat [2, 8] [µg/mL] | Hematic levels in the rat [2, 9] [µg/mL] | absorption by oral route (in words) [2] | MIC (E. coli SS 05) [µg/mL] | Hematic levels in the rat [2, 10] [µg/mL] | Hematic levels in the rat [2, 11] [µg/mL] | Hematic levels in the healthy volunteer ([3]; 0.30 hours, 18 min) [µg/mL] | Hematic levels in the healthy volunteer ([3]; 1 hour, 60 min) [µg/mL] | Hematic levels in the healthy volunteer ([3]; 2 hours, 120 min) [µg/mL] | Hematic levels in the healthy volunteer ([3]; 3 hours, 180 min) [µg/mL] | Hematic levels in the healthy volunteer ([3]; 4 hours, 240 min) [µg/mL] | Hematic levels in the rat ([4]; 0.3 h) [µg/mL] | also measured |
| --- | --- | --- | --- | --- | --- | --- | --- | --- | --- | --- | --- | --- | --- | --- | --- | --- | --- | --- | --- | --- | --- |
| CC[C@H]1OC(=O)[C@H](C)[C@@H](O[C@H]2C[C@@](C)(OC)[C@@H](O)[C@H](C)O2)[C@H](C)[C@@H](O[C@@H]2O[C@H](C)C[C@H](N(C)C)[C@H]2O)[C@](C)(O)C[C@@H](C)C(=O)[C@H](C)[C@@H](O)[C@]1(C)O [RV01, erythromycin alpha-mercaptosuccinate] | 0.01 (≈ 0.0136 µM) | 6 (≈ 8.18 µM) | practically normal appearance | an appearance like that of the control animals | 0.01 (≈ 0.0136 µM) | 0.48 | 0.79 | 0.44 | 0.24 | 0.03 | poorly absorbed by oral route and in a rate like that of erythromycin base | 50 (≈ 68.1 µM) | – | – | – | – | – | – | – | – | concentration at 2 h ([2]; rat, blood, po, 100 mg/kg, Hematic levels in the rat, 2 hours, 100 mg/kg as erythromycin, average): 1180 ng/mL; concentration at 3 h ([2]; rat, blood, po, 100 mg/kg, Hematic levels in the rat, 3 hours, 100 mg/kg as erythromycin, average): 770 ng/mL |
| CC[C@H]1OC(=O)[C@H](C)[C@@H](O[C@H]2C[C@@](C)(OC)[C@@H](O)[C@H](C)O2)[C@H](C)[C@@H](O[C@@H]2O[C@H](C)C[C@H](N(C)C)[C@H]2O)[C@](C)(O)C[C@@H](C)C(=O)[C@H](C)[C@@H](O)[C@]1(C)O [RV03, erythromycyn-thiazolidin-carboxylate] | 0.025 (≈ 0.0341 µM) | 6 (≈ 8.18 µM) | practically normal appearance | an appearance like that of the control animals | 0.025 (≈ 0.0341 µM) | 0.58 | 0.71 | 0.59 | 0.36 | 0.07 | poorly absorbed by oral route and in a rate like that of erythromycin base | 50 (≈ 68.1 µM) | 1.30 | 0.77 | – | – | – | – | – | – | – |
| CC[C@H]1OC(=O)[C@H](C)[C@@H](O[C@H]2C[C@@](C)(OC)[C@@H](O)[C@H](C)O2)[C@H](C)[C@@H](O[C@@H]2O[C@H](C)C[C@H](N(C)C)[C@H]2O)[C@](C)(O)C[C@@H](C)C(=O)[C@H](C)[C@@H](O)[C@]1(C)O [RV04, erythromycin-S-carboxymethylcysteinate] | 0.01 (≈ 0.0136 µM) | 6 (≈ 8.18 µM) | practically normal appearance | an appearance like that of the control animals | 0.025 (≈ 0.0341 µM) | 0.50 | 0.71 | 0.68 | 0.43 | 0.15 | poorly absorbed by oral route and in a rate like that of erythromycin base | 50 (≈ 68.1 µM) | 1.30 | 1.04 | – | – | – | – | – | – | – |
| CC[C@H]1OC(=O)[C@H](C)[C@@H](O[C@H]2C[C@@](C)(OC)[C@@H](O)[C@H](C)O2)[C@H](C)[C@@H](O[C@@H]2O[C@H](C)C[C@H](N(C)C)[C@H]2O)[C@](C)(O)C[C@@H](C)C(=O)[C@H](C)[C@@H](O)[C@]1(C)O [RV05, erythromycin-N-acetylcysteinate] | 0.01 (≈ 0.0136 µM) | 12 (≈ 16.4 µM) | practically normal appearance | an appearance like that of the control animals | 0.01 (≈ 0.0136 µM) | 0.44 | 0.83 | 0.59 | 0.40 | 0.08 | poorly absorbed by oral route and in a rate like that of erythromycin base | 25 (≈ 34.1 µM) | 1.41 | 1.03 | – | – | – | – | – | – | – |
| CCC(=O)O[C@H]1[C@H](O[C@@H]2[C@@H](C)[C@H](O[C@H]3C[C@@](C)(OC)[C@@H](O)[C@H](C)O3)[C@@H](C)C(=O)O[C@H](CC)[C@@](C)(O)[C@H](O)[C@@H](C)C(=O)[C@H](C)C[C@@]2(C)O)O[C@H](C)C[C@@H]1N(C)C [RV11, erythromycin-monopropionate-alpha-mercaptosuccinate] | 0.01 (≈ 0.0127 µM) | 6 (≈ 7.59 µM) | – | – | 0.05 (≈ 0.0633 µM) | – | – | – | – | – | – | 100 (≈ 127 µM) | – | – | 1.28 | 1.70 | 2.16 | 1.48 | 1.21 | 0.72 | Hematic levels in the rat ([4]; 1 h): 1.64 µg/mL; Hematic levels in the rat ([4]; 2 h): 2.50 µg/mL; Hematic levels in the rat ([4]; 3 h): 1.31 µg/mL; Hematic levels in the rat ([4]; 4 h): 0.58 µg/mL; Hematic levels in the rat ([4]; 5 h): 0.38 µg/mL; Hematic levels in the rat ([4]; 6 h): 0.08 µg/mL; absorption by oral route (in words) [4]: absorbed by oral route in a rate practically analogous to that of erythromycin estolate; histological appearance of non obstructed bronchi ([1]; oral, 500 mg/kg): presence of bronchi having almost normal appearance; histological appearance of obstructed bronchial tract ([1]; oral, 500 mg/kg): fully like that of the control animals |
| CCC(=O)O[C@H]1[C@H](O[C@@H]2[C@@H](C)[C@H](O[C@H]3C[C@@](C)(OC)[C@@H](O)[C@H](C)O3)[C@@H](C)C(=O)O[C@H](CC)[C@@](C)(O)[C@H](O)[C@@H](C)C(=O)[C@H](C)C[C@@]2(C)O)O[C@H](C)C[C@@H]1N(C)C [RV13, erythromycin-monopropionate-thiazolidin-carboxylate] | 0.025 (≈ 0.0316 µM) | 6 (≈ 7.59 µM) | – | – | 0.025 (≈ 0.0316 µM) | – | – | – | – | – | – | 50 (≈ 63.3 µM) | – | – | 1.16 | 1.67 | 2.21 | 1.67 | 1.29 | 0.81 | Hematic levels in the rat ([4]; 1 h): 1.80 µg/mL; Hematic levels in the rat ([4]; 2 h): 2.47 µg/mL; Hematic levels in the rat ([4]; 3 h): 1.10 µg/mL; Hematic levels in the rat ([4]; 4 h): 0.72 µg/mL; Hematic levels in the rat ([4]; 5 h): 0.52 µg/mL; Hematic levels in the rat ([4]; 6 h): 0.12 µg/mL; absorption by oral route (in words) [4]: absorbed by oral route in a rate practically analogous to that of erythromycin estolate; histological appearance of non obstructed bronchi ([1]; oral, 500 mg/kg): presence of bronchi having almost normal appearance; histological appearance of obstructed bronchial tract ([1]; oral, 500 mg/kg): fully like that of the control animals |
| CCC(=O)O[C@H]1[C@H](O[C@@H]2[C@@H](C)[C@H](O[C@H]3C[C@@](C)(OC)[C@@H](O)[C@H](C)O3)[C@@H](C)C(=O)O[C@H](CC)[C@@](C)(O)[C@H](O)[C@@H](C)C(=O)[C@H](C)C[C@@]2(C)O)O[C@H](C)C[C@@H]1N(C)C [RV15, erythromycin monopropionate N-acetylcysteinate] | 0.01 (≈ 0.0127 µM) | 6 (≈ 7.59 µM) | – | – | 0.025 (≈ 0.0316 µM) | – | – | – | – | – | – | 100 (≈ 127 µM) | – | – | 1.10 | 1.58 | 2.17 | 1.72 | 1.38 | 0.85 | Hematic levels in the rat ([4]; 1 h): 1.90 µg/mL; Hematic levels in the rat ([4]; 2 h): 2.68 µg/mL; Hematic levels in the rat ([4]; 3 h): 1.19 µg/mL; Hematic levels in the rat ([4]; 4 h): 0.55 µg/mL; Hematic levels in the rat ([4]; 5 h): 0.44 µg/mL; Hematic levels in the rat ([4]; 6 h): 0.03 µg/mL; absorption by oral route (in words) [4]: absorbed by oral route in a rate practically analogous to that of erythromycin estolate; histological appearance of non obstructed bronchi ([1]; oral, 500 mg/kg): presence of bronchi having almost normal appearance; histological appearance of obstructed bronchial tract ([1]; oral, 500 mg/kg): fully like that of the control animals |
